From publication PMC6036132, “In Silico Workflow for the Discovery of Natural Products Activating the G Protein-Coupled Bile Acid Receptor 1” (Frontiers in Chemistry, 2018)

Target: T1, G protein-coupled bile acid receptor 1 (GPBAR1) (Homo sapiens, UniProt Q8TDU6)
T1 construct: full-length GPBAR1 expression plasmid (Origene), transiently transfected in HEK 293T cells with CRE-Luc and EGFP plasmids
T1 sequence (Q8TDU6 1-330): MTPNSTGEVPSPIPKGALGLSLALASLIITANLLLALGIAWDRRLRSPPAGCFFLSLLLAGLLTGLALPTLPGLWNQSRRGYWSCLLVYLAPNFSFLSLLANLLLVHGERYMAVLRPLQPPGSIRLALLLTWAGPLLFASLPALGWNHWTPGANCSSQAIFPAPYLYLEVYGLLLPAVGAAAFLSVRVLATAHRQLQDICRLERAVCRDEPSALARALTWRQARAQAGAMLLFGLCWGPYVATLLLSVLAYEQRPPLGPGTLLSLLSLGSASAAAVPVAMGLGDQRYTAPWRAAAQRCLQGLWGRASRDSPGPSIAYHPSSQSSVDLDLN
Assay: CRE-luciferase reporter assay in transfected HEK […] cells, EGFP-normalised
Format: cell-based
Settings: agonist; 18 h; relative to 10 μM LCA = 100%

SMILES: C[C@H](CCC(=O)O)[C@H]1CC[C@H]2[C@@H]3[C@H](O)C[C@@H]4C[C@H](O)CC[C@]4(C)[C@H]3CC[C@]12C [compound 3, chenodeoxycholic acid]
- Activity (at 5 μM): 66.69 ± 8.72%
